These results are taken from patent EP0869784B1, “INHIBITION OF FATTY ACID SYNTHASE AS A MEANS TO REDUCE ADIPOCYTE MASS” (THE JOHNS HOPKINS UNIVERSITY, priority 1995, dated 1997).

Some results are limits rather than exact numbers.

In series [1] the test system is HL60 human promyelocytic leukemia cells. As to the kind of experiment: [U14C]-acetate incorporation by HL60 cells. It counts as cell-based. The conditions noted are these: 10 µg/ml, time dependent, Figure 3. Here is the method: (§1) HL60 cells were labeled with [U^14C]-acetate in the presence of 10 µg/ml C-75; cells were incubated in 5% CO2 at 37°C. Results are plotted in Figure 3; each time point was performed in triplicate, error bars are the standard deviation.

Series [2] has the same test system. As to the kind of experiment: HL60 viable cell count with or without palmitate (fatty acid rescue). The series is classed as cell-based. The conditions noted are these: 2.5 ug/ml; palmitate 80 micromolar; viable cells by trypan blue exclusion, Figure 5. The method, then:
Suitable FAS inhibitors may be identified by a simple test exemplified in Example 7, and in U.S. patent application 08/188,425. Generally, this test uses a tumor cell line in which an FAS inhibitor, typically cerulenin, is cytotoxic. Such cell lines include SKBR-3, ZR-75-1, and preferably HL60. Suitable FAS inhibitors will inhibit growth of such cell lines, but the cells are rescued by exogenous supply of the product of the FAS enzyme (fatty acid). When cell growth is measured in the presence and absence of exogenous fatty acid (e.g., palmitate or oleate), inhibition by specific FAS inhibitors is relieved by the fatty acid.
200,000 HL60 cells were plated in 24-well plates in 1 ml fatty acid free medium with or without palmitate (80 micromolar, complexed to fatty acid free albumin 0.2:1). Cells were treated with 2.5 ug/ml of C-75. Cells were incubated in 5% CO2 at 37°C and viable cells were counted with trypan blue exclusion at 24, […], 72, and 96 hours. Results are plotted in Figure 5; each time point was performed in triplicate, error bars are the standard deviation. […] Note that palmitate alone causes some suppression of HL60 proliferation.

The test system of series [3] is hepatic fatty acid synthesis. As to the kind of experiment: In vivo metabolic labeling with [U-3H]-acetate, liver fatty acid synthesis. Set-up: species or system mice. Here is the method: (§2) Fatty acid synthesis was measured using metabolic labeling in vivo with [U-^3H]-acetate as described in Pizer, et al., 1996, Cancer Res., 56:1189-1193.
Thus, the reversible cerulenin-induced weight loss may be the result of fatty acid synthesis inhibition as well as decreased appetite in the mice.
as §1

Another series addresses FAS (Homo sapiens, UniProt P49327). As to the kind of experiment: FAS activity in hypotonic lysate of OVCAR-3 ascites cells (malonyl-CoA dependent oxidation of NADPH at 340 nm). The series is classed as biochemical. The text has this:
Compounds which inhibit FAS can be identified by testing the ability of a compound to inhibit fatty acid synthase activity using purified enzyme. Fatty acid synthase activity can be measured spectrophotometrically based on the oxidation of NADPH, or radioactively by measuring the incorporation of radiolabeled acetyl- or malonyl-CoA. (Dils, et al, Methods Enzymol, 35:74-83). FAS inhibitors are exemplified in U.S. patent application 08/188,425 and International patent publication WO 94/02108, both of which are incorporated herein by reference.

Series [4] in a line: C-75-induced weight loss in nude mice inoculated with OVCAR-3 cells (Examples 8 and 9). It counts as in vivo. The method, then: (§3) 20 nude mice (Harland) mice were inoculated on Day 0 with 0.1 ml packed OVCAR-3 cells. 10 mice received transisomer of C-75 (20 mg/kg) in 100 ul RPMI on days 1, 3, and 5. 10 mice received 100 ul of RPMI i.p. alone on days 1, 3, and 5. Animals were weighed on days indicated on Figure 6. Animals were sacrificed when 30% increase in body weight occurred from tumor growth.
(§4) This indicates a dose response to the anti-tumor effect of C-75.

The next series deals with OVCAR-3 cells. As to the kind of experiment: Survival of nude mice inoculated with OVCAR-3 cells (Examples 8 and 9). It counts as in vivo. Here is the method: as §3, §4
A short description of series [5]: C-75-induced weight loss in OVCAR-3 xenograft mice, pilot study (Example 6). The series is classed as in vivo. The conditions noted are these: 60 mg/kg on days 1, 3, and 5. The method, then:
C-75 was tested in vivo in a pilot study against the OVCAR-3 xenograft model of Example 4. Ten mice were inoculated intraperitoneally with 10^7 OVCAR-3 cells. The mice were treated on days 1, 3, and 5 with either DMSO or 60 mg/kg C-75. Results are plotted in Figure 4. C-75 treated mice experienced a 20% reduction in weight loss by day eight. Animals regained their original weight by day 15, increased their weight to nearly 110% of original body weight by day 24, and achieved original body weight by day 34.

Series [6] deals with OVCAR-3 ascites tumor fatty acid synthesis. As to the kind of experiment: In vivo metabolic labeling with [U-3H]-acetate, tumor fatty acid synthesis. Set-up: species or system mice. The method, then: as §2
A short description of series [7]: Cerulenin-induced weight loss in athymic nude mice (Example 2), with necropsy from a parallel experiment. The series is classed as in vivo. Here is the method:
Athymic mice received 60 mg/kg cerulenin i.p. in 25% DMSO/saline or vehicle alone each day for 1 week. The animal weights were recorded every two days up to day 15. Average animal weight for both groups of mice is plotted against treatment day in Figure 1. Error bars represent standard error of the mean. […] In addition there was a 28% reduction of feces mass in the cerulenin-treated group consistent with deceased food intake.

Series [8] can be described thus: Half life of the drug in ascites. On the set-up: species or system mice. The conditions noted are these: mouse, in vivo, ip.
Series [9] in a line: Cerulenin-induced weight loss in nude mice with OVCAR-3 xenografts (Example 3). The series is classed as in vivo, Athymic mice. The settings on record: 80 mg/kg i.p. for 1 week. The method, then: Cerulenin was administered as described in Example 2 above to mice which received 10^7 OVCAR-3 human ovarian cancer cells. Athymic mice received 0.1 ml of packed NIH-OVCAR-3 cells (approximately […]) intraperitoneally on treatment day 0. Beginning on day 1, treated mice received 80 mg/kg cerulenin i.p. in 25% DMSO/saline for 1 week, while untreated mice received vehicle alone. […] Weight loss constitutes the major toxicity observed during fatty acid synthesis inhibition therapy with cerlenin; the mice regained inception body mass within 10 days following treatment.

Setting [10] is: 60 mg/kg i.p. each day for 1 week.

Chain of FAS (P49327 whole entry): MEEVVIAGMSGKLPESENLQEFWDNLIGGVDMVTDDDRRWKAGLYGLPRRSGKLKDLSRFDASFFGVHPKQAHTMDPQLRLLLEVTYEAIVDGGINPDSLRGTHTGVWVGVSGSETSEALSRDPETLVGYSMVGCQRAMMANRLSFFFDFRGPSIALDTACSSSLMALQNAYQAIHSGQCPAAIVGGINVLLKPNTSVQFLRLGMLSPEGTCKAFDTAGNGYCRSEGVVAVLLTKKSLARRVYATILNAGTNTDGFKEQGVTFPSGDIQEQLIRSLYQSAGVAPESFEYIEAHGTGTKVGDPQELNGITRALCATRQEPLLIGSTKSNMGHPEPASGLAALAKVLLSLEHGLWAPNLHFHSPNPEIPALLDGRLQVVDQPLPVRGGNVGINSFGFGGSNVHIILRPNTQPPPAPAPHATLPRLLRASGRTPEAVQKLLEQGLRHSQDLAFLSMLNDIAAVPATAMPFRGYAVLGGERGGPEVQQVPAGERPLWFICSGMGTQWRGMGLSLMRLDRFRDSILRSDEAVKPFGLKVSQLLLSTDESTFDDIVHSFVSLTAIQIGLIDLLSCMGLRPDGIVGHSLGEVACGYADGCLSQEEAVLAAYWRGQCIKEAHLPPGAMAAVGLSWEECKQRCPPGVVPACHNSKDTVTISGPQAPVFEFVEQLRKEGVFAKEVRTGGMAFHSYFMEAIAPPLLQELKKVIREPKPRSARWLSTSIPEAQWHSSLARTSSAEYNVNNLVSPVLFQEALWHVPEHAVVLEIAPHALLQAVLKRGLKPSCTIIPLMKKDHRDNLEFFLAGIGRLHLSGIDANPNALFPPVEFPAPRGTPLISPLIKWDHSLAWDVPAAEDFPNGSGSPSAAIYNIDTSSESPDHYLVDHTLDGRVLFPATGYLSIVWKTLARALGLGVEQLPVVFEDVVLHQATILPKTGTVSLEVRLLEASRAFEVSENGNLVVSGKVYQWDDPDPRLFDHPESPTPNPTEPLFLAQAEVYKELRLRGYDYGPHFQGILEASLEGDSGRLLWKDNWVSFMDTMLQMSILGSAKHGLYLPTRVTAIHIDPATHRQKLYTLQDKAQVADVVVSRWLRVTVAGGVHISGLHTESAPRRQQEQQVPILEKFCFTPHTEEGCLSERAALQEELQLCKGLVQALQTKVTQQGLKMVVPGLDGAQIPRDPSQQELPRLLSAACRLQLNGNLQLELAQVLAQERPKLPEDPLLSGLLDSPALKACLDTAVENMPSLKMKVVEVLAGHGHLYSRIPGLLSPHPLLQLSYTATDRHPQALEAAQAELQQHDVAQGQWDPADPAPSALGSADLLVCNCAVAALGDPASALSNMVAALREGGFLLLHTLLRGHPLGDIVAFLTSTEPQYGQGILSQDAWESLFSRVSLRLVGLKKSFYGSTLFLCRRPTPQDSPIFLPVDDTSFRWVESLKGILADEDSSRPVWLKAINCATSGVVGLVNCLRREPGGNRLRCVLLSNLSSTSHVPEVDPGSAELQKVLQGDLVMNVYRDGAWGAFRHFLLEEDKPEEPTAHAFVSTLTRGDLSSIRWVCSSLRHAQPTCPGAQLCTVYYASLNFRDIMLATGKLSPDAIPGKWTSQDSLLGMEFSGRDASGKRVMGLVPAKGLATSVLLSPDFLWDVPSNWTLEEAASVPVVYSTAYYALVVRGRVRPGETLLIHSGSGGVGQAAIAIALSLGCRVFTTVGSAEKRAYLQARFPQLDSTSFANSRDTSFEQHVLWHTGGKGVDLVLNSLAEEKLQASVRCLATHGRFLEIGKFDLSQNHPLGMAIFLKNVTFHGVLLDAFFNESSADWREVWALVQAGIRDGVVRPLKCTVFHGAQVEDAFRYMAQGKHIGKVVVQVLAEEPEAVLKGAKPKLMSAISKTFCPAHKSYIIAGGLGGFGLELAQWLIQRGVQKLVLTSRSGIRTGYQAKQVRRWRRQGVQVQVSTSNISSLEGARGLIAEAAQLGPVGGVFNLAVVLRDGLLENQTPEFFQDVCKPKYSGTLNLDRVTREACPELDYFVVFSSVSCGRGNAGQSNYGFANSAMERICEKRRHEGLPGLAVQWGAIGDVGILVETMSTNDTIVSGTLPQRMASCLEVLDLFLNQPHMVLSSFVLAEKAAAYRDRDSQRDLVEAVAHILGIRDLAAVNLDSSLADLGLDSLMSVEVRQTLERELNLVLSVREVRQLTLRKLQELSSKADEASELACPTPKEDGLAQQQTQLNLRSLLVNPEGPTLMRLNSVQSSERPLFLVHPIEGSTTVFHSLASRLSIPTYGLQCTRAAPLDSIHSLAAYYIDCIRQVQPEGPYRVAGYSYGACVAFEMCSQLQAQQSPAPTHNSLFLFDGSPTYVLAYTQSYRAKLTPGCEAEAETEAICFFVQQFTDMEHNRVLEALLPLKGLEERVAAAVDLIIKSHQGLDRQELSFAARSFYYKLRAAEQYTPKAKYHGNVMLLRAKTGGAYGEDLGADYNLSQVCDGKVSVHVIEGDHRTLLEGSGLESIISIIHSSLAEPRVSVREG

Regarding `C=C1C(=O)O[C@@H](CCCCCCCC)[C@@H]1C(=O)O` (relative stereo) [Example C-75, trans-Tetrahydro-3-methylene-2-oxo-5-n-octyl-4-furancarboxylic acid], the “reduction in fatty acid synthesis (label incorporation into phospholipids)” value in series [1] is “nearly a three-fold reduction”. For the same compound, the “rescue from growth inhibition by exogenous fatty acid” value in series [2] is given as “palmitate rescues HL60 cells from C-75”. In [3] (pilot in vivo metabolic labeling studies), the “reduction of [U-3H] acetate incorporation into fatty acids in mouse liver” value worked out at 30%. The “reduction of FAS activity compared to control lysate” value at FAS (50 µg/ml, 37 °C, 180 min) is 3 fold. For the same compound, at FAS (50 µg/ml, 37 °C, 180 min, control 5.6), the FAS activity is on record as 1.8 nM NADPH oxidized/min. In addition, the “effect of incubation at 4°” value at FAS (incubation at 4°) is recorded as “abolishes the inhibitory effect”. The “weight loss in mice” value in series [4] (20 mg/kg on days 1, 3, and 5, Figure 6) was “causes weight loss”. Moreover, the “average maximum weight loss” value in [4] (only one dose, on day 3) is given as “about 3 grams”. The “survival of the xenograft” value with OVCAR-3 cells (20 mg/kg on days 1, 3, and 5, p=0.001 Wilcoxon and Mantel) is “increased survival”. Moreover, the survival entry in the series with OVCAR-3 cells (only one dose, wilcoxon p=0.56, Mantel p=0.52) was “trend showing increased survival, but it was not statistically significant”. Also, in series [5], the “day by which original body weight was achieved again after the increase” value is at most 34 days and the “day by which original weight was regained” value is at most 15 days. Moreover, the “weight relative to original body weight” value in [5] (by day 24) is about 110%. In series [5] (by day eight), this compound had a body weight loss of 20%.
Take `C/C=C/C/C=C/CCC(=O)[C@H]1O[C@H]1C(N)=O` [cerulenin]: in series [6] (high dose 6mg/mouse versus standard dose 2mg/mouse), the “inhibition with high dose over standard dose” value is given as “No augmentation of inhibition”. In [6] (intraperitoneal administration as in Example 3), the “reduction of OVCAR-3 ascites tumor fatty acid synthesis” value is given as 43%. Moreover, the “effect on mean hepatic fatty acid synthesis” value in [3] (mice with OVCAR-3 ascites tumor, intraperitoneal administration) is recorded as “no effect”. The “inhibition of fatty acid synthesis in liver” value in series [3] (mice without tumor, parallel experiments) is about 50%. In addition, in [7] (setting [10]), the Water intake result is on record as “not appreciable altered” and the “reduction of feces mass” value is listed as 28%. Besides, in series [7] (60 mg/kg i.p. each day for 1 week, by day 14), the “weight relative to original weight” value is 96%. For the same compound, the “average loss of weight” value in series [7] (60 mg/kg i.p. each day for 1 week, by day eight) is 28%. Further, in series [7] (during the period of maximal weight loss), the “Observation of the mice (activity)” value is reported as “normal activity”. Also, in series [7] (necropsy, parallel experiment), the “Liver, microscopically” value was “unremarkable without necrosis or inflammation” and the “muscle mass, histologically” value is recorded as “no decrease in muscle mass was detected histologically”. Moreover, in [7] (parallel experiment), the “Necropsy: fat deposits” value is “markedly decreased subcutaneous fat and abdominal fat deposits”. For the same compound, the half-life in series [8] was under 15 min. Moreover, in series [9], the “time to regain inception body mass following treatment” value is recorded as at most 10 days and the “urinalysis, diabetogenic effect” value was “failed to demonstrate any diabetogenic effect”. In series [9] (during the treatment period), the “mean weight loss of original body mass” value is recorded as 25%.

The term half-life denotes how long it takes for the measured level to halve. Low values mean rapid decline, high ones slow decline.
